Assay results as given in patent US11452717B2, “Small molecule activators of nicotinamide phosphoribosyltransferase (NAMPT) and uses thereof” (Sanford Burnham Prebys Medical Discovery Institute, priority 2017, dated 2022).

These compounds were tested against NAMPT enzyme (Homo sapiens (Human), UniProt P43490) (assay: Enzyme Assay and NMN Detection (NAMPT reaction, fluorescence detection of NMN)). Conditions: Table B-1; NAMPT activation, NMN formation.
Assay type: biochemical
Method in brief: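 NMN formed was read at ex380/em460 after acetophenone/KOH derivatization and formic acid addition, using a same-day calibration curve. Final conditions: NAMPT 16 nM, nicotinamide 5 uM, PRPP 6.25 uM, ATP 120 uM, pyrophosphatase 0.04 U/ml, pH 7.5 HEPES buffer with MgCl2 and TCEP, 2 h at room temperature.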

NAMPT enzyme, sequence (P43490 whole entry, species assumed): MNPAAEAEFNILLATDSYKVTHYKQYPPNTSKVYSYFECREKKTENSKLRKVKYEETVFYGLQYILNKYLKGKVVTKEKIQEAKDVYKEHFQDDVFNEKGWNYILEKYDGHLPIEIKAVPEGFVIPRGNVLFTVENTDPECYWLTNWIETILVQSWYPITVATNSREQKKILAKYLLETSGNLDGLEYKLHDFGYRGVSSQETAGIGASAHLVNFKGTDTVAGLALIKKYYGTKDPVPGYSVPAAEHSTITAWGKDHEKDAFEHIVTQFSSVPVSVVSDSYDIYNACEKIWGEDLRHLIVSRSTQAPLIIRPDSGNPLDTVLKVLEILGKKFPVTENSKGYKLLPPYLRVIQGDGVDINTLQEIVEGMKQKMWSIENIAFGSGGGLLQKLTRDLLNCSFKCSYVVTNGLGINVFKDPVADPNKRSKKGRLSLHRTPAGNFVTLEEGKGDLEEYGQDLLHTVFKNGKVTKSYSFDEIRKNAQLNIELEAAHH

SMILES	EC50 [µM]
O=C(NCc1cn[nH]c1)Nc1ccc(S(=O)(=O)Nc2ccccn2)cc1 [4-[3-(1H-Pyrazol-4-ylmethyl)-ureido]-N-pyridin-2-yl-benzenesulfonamide]	2 to 5
CCOC(=O)c1ccc(NC(=O)NCc2cn(Cc3ccc(OC)cc3)nn2)cc1 [Ethyl 4-(3-((1-(4-methoxybenzyl)-1H-1,2,3-triazol-4-yl)methyl)ureido)benzoate]	> 20
CCOC(=O)c1ccc(NC(=O)NCc2cn(C)cn2)cc1 [Ethyl 4-(3-((1-methyl-1H-imidazol-4-yl)methyl)ureido)benzoate]	> 20
CCOC(=O)c1ccc(NC(=O)NCc2cncn2C)cc1 [Ethyl 4-(3-((1-methyl-1H-imidazol-5-yl)methyl)ureido)benzoate]	> 20
CCOC(=O)c1ccc(NC(=O)NCc2cnn(C)c2)cc1 [Ethyl 4-(3-((1-methyl-1H-pyrazol-4-yl)methyl)ureido)benzoate]	> 20
CCOC(=O)c1ccc(NC(=O)NCc2ccnn2C)cc1 [Ethyl 4-(3-((1-methyl-1H-pyrazol-5-yl)methyl)ureido)benzoate]	> 20
CCOC(=O)c1ccc(NC(=O)NCc2c[nH]nn2)cc1 [Ethyl 4-(3-((1H-1,2,3-triazol-4-yl)methyl)ureido)benzoate]	> 20
CCOC(=O)c1ccc(NC(=O)NCc2c[nH]cn2)cc1 [Ethyl 4-(3-((1H-imidazol-4-yl)methyl)ureido)benzoate]	> 20
CCOC(=O)c1ccc(NC(=O)NCc2cnc[nH]2)cc1 [Ethyl 4-(3-((1H-imidazol-5-yl)methyl)ureido)benzoate]	> 20
CCOC(=O)c1ccc(NC(=O)NCc2cc[nH]n2)cc1 [Ethyl 4-(3-((1H-pyrazol-3-yl)methyl)ureido)benzoate]	> 20
CCOC(=O)c1ccc(NC(=O)NCc2cn[nH]c2)cc1 [Ethyl 4-(3-((1H-pyrazol-4-yl)methyl)ureido)benzoate]	0.1 to 2
CCOC(=O)c1ccc(NC(=O)NCc2c(C)noc2C)cc1 [Ethyl 4-(3-((3,5-dimethylisoxazol-4-yl)methyl)ureido)benzoate]	> 20
CCOC(=O)c1ccc(NC(=O)NCc2c[nH]nc2N)cc1 [Ethyl 4-(3-((3-amino-1H-pyrazol-4-yl)methyl)ureido)benzoate]	> 20
CCOC(=O)c1ccc(NC(=O)NCc2c[nH]nc2C)cc1 [Ethyl 4-(3-((3-methyl-1H-pyrazol-4-yl)methyl)ureido)benzoate]	> 20
CCOC(=O)c1ccc(NC(=O)NCc2cocn2)cc1 [Ethyl 4-(3-(oxazol-4-ylmethyl)ureido)benzoate]	> 20

Same assay, conditions: Table B-2; NAMPT activation, NMN formation

SMILES	EC50 [µM]
O=C(NCc1ccncc1)Nc1ccc(S(=O)(=O)Nc2cccc(Cl)c2)cc1 [4-(3-pyridin-4-ylmethyl-ureido)-N-(3-chloro-phenyl)-benzenesulfonamide]	0.1 to 2
O=C(NCc1ccncc1)Nc1ccc(S(=O)(=O)Nc2ccc(Cl)cc2)cc1 [4-(3-pyridin-4-ylmethyl-ureido)-N-(4-chloro-phenyl)-benzenesulfonamide]	0.1 to 2
O=C(NCc1ccncc1)Nc1ccc(NS(=O)(=O)c2ccc(Cl)cc2)cc1 [4-Chloro-N-[4-(3-pyridin-4-ylmethyl-ureido)-phenyl]-benzenesulfonamide]	< 0.1
COc1ccc(S(=O)(=O)Nc2ccc(NC(=O)NCc3ccncc3)cc2)cc1 [4-Methoxy-N-[4-(3-pyridin-4-ylmethyl-ureido)-phenyl]-benzenesulfonamide]	0.1 to 2
COC(=O)c1ccc(CNS(=O)(=O)c2ccc(NC(=O)NCc3ccncc3)cc2)cc1 [4-{[4-(3-Pyridin-4-ylmethyl-ureido)-benzenesulfonylamino]-methyl}-benzoic acid methyl ester]	0.1 to 2
CCOC(=O)c1ccccc1NC(=O)NCc1ccncc1 [Ethyl 2-(3-(pyridin-4-ylmethyl)ureido)benzoate]	> 20
CCOC(=O)c1cccc(NC(=O)NCc2ccncc2)c1 [Ethyl 3-(3-(pyridin-4-ylmethyl)ureido)benzoate]	5 to 20
CCOC(=O)c1ccc(NC(=O)NCc2ccnc(N)c2)cc1 [Ethyl 4-(3-((2-aminopyridin-4-yl)methyl)ureido)benzoate]	> 20
CCOC(=O)c1ccc(NC(=O)NCc2ccnc(Cl)c2)cc1 [Ethyl 4-(3-((2-chloropyridin-4-yl)methyl)ureido)benzoate]	> 20
CCOC(=O)c1ccc(NC(=O)NCc2ccnc(F)c2)cc1 [Ethyl 4-(3-((2-fluoropyridin-4-yl)methyl)ureido)benzoate]	> 20
CCOC(=O)c1ccc(NC(=O)NCc2ccnc(OC)c2)cc1 [Ethyl 4-(3-((2-methoxypyridin-4-yl)methyl)ureido)benzoate]	> 20
CCOC(=O)c1ccc(NC(=O)NCc2ccnc(C)c2)cc1 [Ethyl 4-(3-((2-methylpyridin-4-yl)methyl)ureido)benzoate]	> 20
CCOC(=O)c1ccc(NC(=O)NCc2ccncc2N)cc1 [Ethyl 4-(3-((3-aminopyridin-4-yl)methyl)ureido)benzoate]	> 20
CCOC(=O)c1ccc(NC(=O)NCc2ccncc2Cl)cc1 [Ethyl 4-(3-((3-chloropyridin-4-yl)methyl)ureido)benzoate]	> 20
CCOC(=O)c1ccc(NC(=O)NCc2ccncc2F)cc1 [Ethyl 4-(3-((3-fluoropyridm-4-yl)methyl)ureido)benzoate]	0.1 to 2
CCOC(=O)c1ccc(NC(=O)NCc2ccncc2C)cc1 [Ethyl 4-(3-((3-methylpyridin-4-yl)methyl)ureido)benzoate]	> 20

Same assay, conditions: Table B-3; NAMPT activation, NMN formation

SMILES	EC50 [µM]
NC(=O)c1ccc(NC(=O)NCc2ccncc2)cn1 [5-(3-(pyridin-4-ylmethyl)ureido)picolinamide]	2 to 5
CCOC(=O)c1ccc(NC(=O)NCC2CCNc3ccccc32)cc1 (centres unmarked) [Ethyl 4-(3-((1,2,3,4-tetrahydroquinolin-4-yl)methyl)ureido)benzoate]	> 20
CCOC(=O)c1ccc(NC(=O)NCc2ccncc2Cl)cc1 [Ethyl 4-(3-((3-chloropyridin-4-yl)methyl)ureido)benzoate]	> 20
CCOC(=O)c1ccc(NC(=O)NCc2ccnnc2)cc1 [Ethyl 4-(3-(pyridazin-4-ylmethyl)ureido)benzoate]	> 20
CCOC(=O)c1ccc(NC(=O)NCc2ccccn2)cc1 [Ethyl 4-(3-(pyridin-2-ylmethyl)ureido)benzoate]	> 20
CCOC(=O)c1ccc(NC(=O)NCc2cccnc2)cc1 [Ethyl 4-(3-(pyridin-3-ylmethyl)ureido)benzoate]	> 20
CCOC(=O)c1ccc(NC(=S)NCc2ccncc2)cc1 [Ethyl 4-(3-(pyridin-4-ylmethyl)thioureido)benzoate]	> 20
CCOC(=O)c1ccc(NC(=O)NCc2cncnc2)cc1 [Ethyl 4-(3-(pyrimidin-5-ylmethyl)ureido)benzoate]	> 20

Same assay, conditions: Table B-4; NAMPT activation, NMN formation

SMILES	EC50 [µM]
O=C(NCc1cn[nH]c1)Nc1ccc(NS(=O)(=O)Cc2ccccc2Cl)cc1 [C-(2-Chloro-phenyl)-N-{4-[3-(1H-pyrazol-4-ylmethyl)-ureido]-phenyl}-methanesulfonamide]	< 0.1
O=C(NCc1cn[nH]c1)Nc1ccc(NS(=O)(=O)Cc2ccc(Cl)c(Cl)c2)cc1 [C-(3,4-Dichloro-phenyl)-N-{4-[3-(1H-pyrazol-4-ylmethyl)-ureido]-phenyl}-methanesulfonamide]	< 0.1
O=C(NCc1cn[nH]c1)Nc1ccc(NS(=O)(=O)Cc2cccc(Cl)c2)cc1 [C-(3-Chloro-phenyl)-N-{4-[3-(1H-pyrazol-4-ylmethyl)-ureido]-phenyl}-methanesulfonamide]	< 0.1
O=C(NCc1cn[nH]c1)Nc1ccc(NS(=O)(=O)Cc2ccc(Cl)cc2)cc1 [C-(4-Chloro-phenyl)-N-{4-[3-(1H-pyrazol-4-ylmethyl)-ureido]-phenyl}-methanesulfonamide]	< 0.1

Same assay, conditions: Table B-6; NAMPT activation, NMN formation

SMILES	EC50 [µM]
O=C(NCc1ccncc1)Nc1ccc(NS(=O)(=O)Cc2ccccc2Br)cc1 [C-(2-Bromo-phenyl)-N-[4-(3-pyridin-4-ylmethyl-ureido)-phenyl]-methanesulfonamide]	< 0.1
O=C(NCc1ccncc1)Nc1ccc(NS(=O)(=O)Cc2ccccc2F)cc1 [C-(2-Fluoro-phenyl)-N-[4-(3-pyridin-4-ylmethyl-ureido)-phenyl]-methanesulfonamide]	< 0.1
COc1ccccc1CS(=O)(=O)Nc1ccc(NC(=O)NCc2ccncc2)cc1 [C-(2-Methoxy-phenyl)-N-[4-(3-pyridin-4-ylmethyl-ureido)-phenyl]-methanesulfonamide]	0.1 to 2
O=C(NCc1ccncc1)Nc1ccc(NS(=O)(=O)Cc2cccc(F)c2)cc1 [C-(3-Fluoro-phenyl)-N-[4-(3-pyridin-4-ylmethyl-ureido)-phenyl]-methanesulfonamide]	< 0.1
COc1cccc(CS(=O)(=O)Nc2ccc(NC(=O)NCc3ccncc3)cc2)c1 [C-(3-Methoxy-phenyl)-N-[4-(3-pyridin-4-ylmethyl-ureido)-phenyl]-methanesulfonamide]	< 0.1
O=C(NCc1ccncc1)Nc1ccc(NS(=O)(=O)Cc2ccc(Br)cc2)cc1 [C-(4-Bromo-phenyl)-N-[4-(3-pyridin-4-ylmethyl-ureido)-phenyl]-methanesulfonamide]	< 0.1
N#Cc1ccc(CS(=O)(=O)Nc2ccc(NC(=O)NCc3ccncc3)cc2)cc1 [C-(4-Cyano-phenyl)-N-[4-(3-pyridin-4-ylmethyl-ureido)-phenyl]-methanesulfonamide]	0.1 to 2
O=C(NCc1ccncc1)Nc1ccc(NS(=O)(=O)Cc2ccc(C3CC3)cc2)cc1 [C-(4-Cyclopropyl-phenyl)-N-[4-(3-pyridin-4-ylmethyl-ureido)-phenyl]-methanesulfonamide]	< 0.1
COc1ccc(CS(=O)(=O)Nc2ccc(NC(=O)NCc3ccncc3)cc2)cc1 [C-(4-Methoxy-phenyl)-N-[4-(3-pyridin-4-ylmethyl-ureido)-phenyl]-methanesulfonamide]	< 0.1
O=C(NCc1ccncc1)Nc1ccc(NS(=O)(=O)Cc2ccc(-c3ccccc3)cc2)cc1 [C-Biphenyl-4-yl-N-[4-(3-pyridin-4-ylmethyl-ureido)-phenyl]-methanesulfonamide]	< 0.1
